Literature values in US20090175803A1 (priority 2008, published 2009).

Assays:
[1] = peroxyl-radical scavenging
[2] = system: carcinogen-induced preneoplastic lesions; settings: mouse mammary organ culture
PPARA = molecular target: T1, PPARA (Homo sapiens, UniProt Q07869)
T1 sequence (Q07869 1-468): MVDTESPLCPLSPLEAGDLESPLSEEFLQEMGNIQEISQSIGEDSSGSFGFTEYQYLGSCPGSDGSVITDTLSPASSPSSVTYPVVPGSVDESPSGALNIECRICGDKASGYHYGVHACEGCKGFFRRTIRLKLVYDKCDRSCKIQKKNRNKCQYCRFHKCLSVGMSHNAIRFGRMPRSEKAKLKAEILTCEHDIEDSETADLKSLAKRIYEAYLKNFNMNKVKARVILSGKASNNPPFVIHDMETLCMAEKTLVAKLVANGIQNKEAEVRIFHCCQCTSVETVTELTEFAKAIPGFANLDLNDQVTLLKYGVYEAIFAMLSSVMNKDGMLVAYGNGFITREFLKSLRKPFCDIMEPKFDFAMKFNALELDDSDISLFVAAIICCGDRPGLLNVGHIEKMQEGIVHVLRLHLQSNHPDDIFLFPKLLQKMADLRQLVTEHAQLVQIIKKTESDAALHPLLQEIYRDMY

[3] = system: PGE2 production from LPS-stimulated human peripheral blood mononuclear cells; settings: LPS-stimulated human PBMC

## COc1cc(/C=C/c2ccc(O)cc2)cc(OC)c1 [Pterostilbene, 4-[(E)-2-(3,5-dimethoxyphenyl)ethenyl]phenol]
[1]
  total reactive antioxidant potential: 237 ± 58 µM
[2]
  inhibition of carcinogen-induced preneoplastic lesions: significant inhibition
PPARA
  PPARA agonism: acts as a PPARA agonist
Animal studies
  blood glucose: can lower blood glucose
In vivo studies
  lipid and glucose lowering effects: possesses lipid and glucose lowering effects
[3]
  PGE2 production: inhibited PGE2 production
Human gastric cancer
  cell proliferation and apoptosis: inhibit cell proliferation and induce apopotosis in a concentration- and time-dependent manner
